In PubChem BioAssay AID1918940 (Molecular Pharmacology Branch, DTP, NCI, 2023):
Where “and” joins values, the source holds several entries; their conditions need not be identical. Identical values can stand only once.

Test system: NCI-H211 complex spheroid viability
Test: Anticancer human tumor NCI-H211 cell line growth inhibition [LSD1];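 further: luminescent viability read after seven days of drug exposure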;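 on viability, T/C: 100% = DMSO vehicle control viability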
Details: for viability, T/C: stronger effect = lower value; for IC50: curve of compound
Text: Multicellular complex tumor spheroid response to LSD1 Inhibitor Iadademstat in combination with a variety of drugs and investigational agents in selected tumor cell lines
The current study was undertaken to assess response to LSD1 inhibitors in combination with standard-of-care drugs and investigational agents in solid tumor complex spheroid models as well as in the K-562 leukemia. Complex spheroids include a stromal component modeled by human endothelial cells (HUVEC) and fibroblasts modeled by human mesenchymal stem cells (MSCs). The concentration ranges selected for each drug and investigational agent were based upon clinically achievable concentrations if the clinical Cmax of the agent was known.
Compounds. The drugs and investigational agents used in this study are listed on Table 1. All of the agents used, including staurosporine (NSC755774) and gemcitabine (NSC613327), were obtained from the Developmental Therapeutics Program, NCI. FDA-approved anticancer drugs are available from the NCI at http://dtp.nci.nih.gov/branches/dscb/oncology_drugset_explanation.html. Drugs and investigational agents were >95% pure by proton nuclear magnetic resonance (NMR) and liquid chromatography/mass spectrometry (LC/MS). Stock solutions were prepared at 400x in DMSO, stored at -70 degrees C, and diluted in fresh medium prior to their use. The final concentration of DMSO in cell culture wells never exceeded 0.25% (v/v). The FDA-approved anticancer drug set is available from the Developmental Therapeutics Program at https://dtp.cancer.gov/organization/dscb/obtaining/available_plates.htm. All drugs and investigational agents were tested over a range starting from a high concentration at or near the clinical Cmax and decreasing in half-log increments. If the clinical Cmax for an agent had not been determined, the highest concentration tested was 10 microM.
Cell Lines. The patient-derived cancer cell (PDC) lines: 292921-168-R-J2-PDC, K24384-001-R-PDC, and 521955-158-R2-J5-PDC pancreatic carcinomas, 556581-035-R-J1 ovarian carcinoma, 324938-238-R-J1-PDC, 855422-203-R-J1-PDC and 883617-216-R-J1-PDC urothelial bladder carcinomas, 743489-274-T-PDC renal cell carcinoma, 138582-R-J1 Merkel cell tumor, K60290-347-R-J1 and K57222-313-R-J1-PDC glioblastomas, 653999-131-R-J2-PDC, LG0703-F948-PDC, and 349418-098-R-PDC non-small cell lung carcinomas, 885512-296-R-J2-PDC, 171881-019-R-J1-PDC breast carcinomas and 186277-243-T-J2-PDC and 233499-124-R-J2-PDC colon carcinomas were obtained from the NCI Patient-Derived Models Repository (PDMR, https://pdmr.cancer.gov). The established cell lines NCI/ADR-RES (RRID:CVCL_14520 and OVCAR-5 (RRID:CVCL_1628) ovarian carcinomas, 786-O (RRID:CVCL_1051) and A498 (RRID:CVCL_A498) renal cell carcinoma, NCI-H211 (ATCC, cat. CRL-5824; RRID:CVCL_1529), NCI-H196 (ATCC, cat. CRL-5823, RRID:CVCL_1509), SW 1271 (ATCC, cat. CRL-2177, RRID:CVCL_1716) and NCI-H1876 (ATCC, cat. CRL-5902, RRID:CVCL_1503) small cell lung carcinomas, MDA-MB-231 (RRID:CVCL_0062) and MDA-MB-468 (RRID:CVCL_0419)breast carcinomas (10-12). Pooled donor human umbilical vein endothelial cells (HUVEC, Lonza, cat. CC-2519) and human mesenchymal stem cells (hMSC, Lonza, cat. PT-2501) were purchased from Lonza (Walkersville, MD).
Cell Culture. All cells were maintained in an incubator at 37 degrees C and 5% CO2 with 95% humidity. The PDC lines were cultured according to standard operating procedures established by the NCI PDMR (https://pdmr.cancer.gov). Briefly all PDCs were thawed and cultured in Matrigel-coated flasks prepared with a working solution of 1X Ham's F-12 nutrient mix, without supplementation (Invitrogen, Waltham, MA, cat. 11765054), 100 U/mL penicillin-streptomycin (Invitrogen, cat. 15140122), and 2.5% Matrigel (Corning Inc., Corning, NY, cat. 354248) for the first three passages. […]

Compound	viability, T/C (compound 0.000316 µM)	viability, T/C (compound 0.001 µM)	viability, T/C (compound 0.00316 µM)	viability, T/C (compound 0.01 µM)	viability, T/C (compound 0.0316 µM)	viability, T/C (compound 0.1 µM)	IC50	viability, T/C (compound 0.316 µM)	viability, T/C (compound 1 µM)	viability, T/C (compound 3.16 µM)	viability, T/C (compound 10 µM)	viability, T/C (compound 0.00949 µM)	viability, T/C (compound 0.03 µM)	viability, T/C (compound 0.0949 µM)	viability, T/C (compound 0.3 µM)	viability, T/C (compound 0.949 µM)	viability, T/C (compound 3 µM)	viability, T/C (compound 0.000949 µM)	viability, T/C (compound 0.003 µM)
CC(C)CC(NC(=O)C(Cc1ccccc1)NC(=O)c1cnccn1)B(O)O (stereo not drawn)	109% and 100%	96.9% and 86.8%	25.4% and 29.6%	6.26% and 1.54%	0.16% and 0.2%	0.16% and 0.32%	2.13 nM and 2.1 nM	–	–	–	–	–	–	–	–	–	–	–	–
CC(C)CC(NC(=O)CNC(=O)c1cc(Cl)ccc1Cl)B1OC(=O)CC(CC(=O)O)(C(=O)O)O1 (stereo not drawn)	125% and 105%	114% and 102%	112% and 115%	65.5% and 41.5%	16% and 14%	3.55% and 4.35%	14.4 nM and 8.63 nM	–	–	–	–	–	–	–	–	–	–	–	–
CC(C)c1c(-c2ccccc2)nc2c(C#N)c[nH]n2c1=O	–	–	–	–	104% and 81.5%	127% and 88%	> 10000 nM	103% and 68.7%	114% and 68.7%	98.9% and 67%	97.3% and 75.2%	–	–	–	–	–	–	–	–
CC1(C)CCC(CN2CCN(c3ccc(C(=O)NS(=O)(=O)c4ccc(NCC5CCOCC5)c([N+](=O)[O-])c4)c(Oc4cnc5[nH]ccc5c4)c3)CC2)=C(c2ccc(Cl)cc2)C1	–	–	–	–	95.3% and 36.1%	98.2% and 43.8%	–	98.3% and 47.9%	124% and 72.7%	118% and 99.6%	32.2% and 60.1%	–	–	–	–	–	–	–	–
CC1COCCN1c1cc(-c2ccnn2C)c2ccnc(-c3ccn[nH]3)c2n1 (stereo not drawn)	–	–	68.4% and 38.3%	21.5% and 14%	4.05% and 7.88%	2.34% and 6.02%	4.96 nM and < 3.16 nM	2.16% and 5.04%	2.28% and 5.77%	–	–	–	–	–	–	–	–	–	–
CC1COCCN1c1cc(C2(S(C)(=N)=O)CC2)nc(-c2ccnc3[nH]ccc23)n1 (stereo not drawn)	–	–	–	–	84.3% and 102%	72.6% and 81.8%	299 nM and 405 nM	49.4% and 63.4%	20.4% and 14.6%	4.23% and 5.02%	2.56% and 2.74%	–	–	–	–	–	–	–	–
CCN(c1cc(-c2ccc(CN3CCOCC3)cc2)cc(C(=O)NCc2c(C)cc(C)[nH]c2=O)c1C)C1CCOCC1	–	–	–	–	–	–	> 3000 nM and 1390 nM	–	–	–	–	122% and 86.1%	108% and 75.3%	100% and 68.3%	97.3% and 54.6%	96.4% and 52.2%	93.8% and 47.7%	–	–
CC[C@@]1(O)C(=O)OCc2c1cc1n(c2=O)Cc2cc3c(CN(C)C)c(O)ccc3nc2-1	66.6% and 67%	11.4% and 13.2%	2.8% and 5.22%	2.3% and 5.28%	2.56% and 5.04%	0.87% and 3.38%	0.447 nM and 0.455 nM	–	–	–	–	–	–	–	–	–	–	–	–
CCc1c2c(nc3ccc(O)cc13)-c1cc3c(c(=O)n1C2)COC(=O)[C@]3(O)CC	–	–	–	–	–	–	< 0.949 nM	–	–	–	–	0.42% and 1.27%	0.59% and 0.51%	0.14% and 0.18%	0.21% and 0.25%	–	–	1.09% and 3.31%	0.88% and 2.36%
COc1cc(C2c3cc4c(cc3C(OC3OC5COC(C)OC5C(O)C3O)C3COC(=O)C23)OCO4)cc(OC)c1O (stereo not drawn)	–	–	–	–	–	–	14.7 nM and < 9.49 nM	–	–	–	–	71.3% and 48.3%	15.2% and 13.1%	2.55% and 6.21%	2.41% and 5.04%	2.11% and 6.22%	2.35% and 5.42%	–	–
COc1cc(Nc2ncc3c(n2)-c2ccc(Cl)cc2C(c2c(F)cccc2OC)=NC3)ccc1C(=O)O	–	–	44.2% and 45.2%	8.97% and 8.03%	5.37% and 3.95%	4.19% and 5.61%	< 3.16 nM	3.59% and 4.36%	3.38% and 3.29%	–	–	–	–	–	–	–	–	–	–
COc1ccc([C@@H](O)c2cc(-c3ncnc4cc(N5CCOCC5)ccc34)c(F)cc2Cl)nn1	–	–	–	–	108% and 89.2%	96.5% and 86.3%	4700 nM and 4950 nM	93.7% and 94.2%	103% and 87.4%	70.8% and 76.6%	10.4% and 8.12%	–	–	–	–	–	–	–	–
Cn1ncnc1C1c2n[nH]c(=O)c3cc(F)cc(c23)NC1c1ccc(F)cc1 (stereo not drawn)	102% and 103%	94.9% and 82.6%	44.8% and 29%	5.27% and 6.62%	8.07% and 5.97%	3.43% and 6.43%	2.79 nM and 2.01 nM	–	–	–	–	–	–	–	–	–	–	–	–
NC1CCC(NC2CC2c2ccccc2)CC1 (stereo not drawn)	–	–	–	–	–	–	–	74.9% [middle of 4 runs]	–	–	36.1% [middle of 23 runs]	–	–	–	–	–	–	–	–
NS(=O)(=O)OCC1CC(n2ccc3c(NC4CCc5ccccc54)ncnc32)CC1O (stereo not drawn)	–	–	–	–	–	–	< 9.49 nM	–	–	–	–	27% and 23.2%	11.8% and 10.5%	2.66% and 3.81%	6.35% and 1.26%	0.58% and 0.97%	0.31% and 0.53%	–	–
Nc1ccccc1NC(=O)c1ccc(CNC(=O)OCc2cccnc2)cc1	–	–	–	–	–	–	31.3 nM and 22.1 nM	–	–	–	–	106% and 110%	51.8% and 28.6%	5.07% and 4.05%	1.34% and 3.99%	0.93% and 2.1%	0.2% and 0.22%	–	–
Nc1ccn(C2OC(CO)C(O)C2(F)F)c(=O)n1 (stereo not drawn)	–	–	–	–	–	–	< 0.949 nM	–	–	–	–	7.87% and 4.04%	2.08% and 4.19%	2.85% and 4.27%	2.42% and 5%	–	–	2.49% and 5.54%	2.72% and 4.15%
Nc1ncn(C2CC(O)C(CO)O2)c(=O)n1 (stereo not drawn)	–	–	35.4% and 37.7%	21.4% and 19%	9.11% and 7%	2.47% and 4.09%	< 3.16 nM	1.77% and 5.19%	1.67% and 4.71%	–	–	–	–	–	–	–	–	–	–
Nc1ncn(C2CC(O)C(CO)S2)c(=O)n1 (stereo not drawn)	–	–	–	–	–	–	1.89 nM and < 0.949 nM	–	–	–	–	9.28% and 10.7%	3.02% and 5.29%	1.96% and 4.56%	2.36% and 4.76%	–	–	74.8% and 46.6%	33.3% and 23.1%
O=C(C=Cc1cccc(S(=O)(=O)Nc2ccccc2)c1)NO	–	–	–	–	–	–	< 9.49 nM	–	–	–	–	28.4% and 18.3%	3.38% and 8.21%	2.69% and 7.91%	2.15% and 6.02%	0.94% and 1.35%	0.17% and 0.22%	–	–
O=C(C=Cn1cnc(-c2cc(C(F)(F)F)cc(C(F)(F)F)c2)n1)NNc1cnccn1	–	–	45.9% and 53.7%	24% and 37.6%	11.7% and 14.6%	4.91% and 5.02%	< 3.16 nM and 4.13 nM	1.61% and 2.32%	1.37% and 2.1%	–	–	–	–	–	–	–	–	–	–
O=C(c1cc(Cc2n[nH]c(=O)c3ccccc23)ccc1F)N1CCN(C(=O)C2CC2)CC1	–	–	–	–	59.8% and 54.5%	30.3% and 22.6%	46.4 nM and 36.9 nM	6.95% and 9.45%	3.01% and 7.35%	2.95% and 7.77%	2.77% and 6.06%	–	–	–	–	–	–	–	–
